For `NCc1ccccn1` [2-(aminomethyl)pyridine], the melting point was -20 °C.
Compound `CC(C)(C)OC(=O)Nc1ccc(C#N)cn1` [2-(boc-amino)-5-cyanopyridine] has a melting point of 173 °C.
`O=C(CBr)c1ccc2ccccc2c1` [2-(bromoacetyl)naphthalene] gave a melting point of 83 °C.
Compound `O=C(CBr)c1cccs1` [2-(bromoacetyl)thiophene] has a melting point of 31 °C.
For `O=C(O)c1ccccc1N=Nc1ccc(O)cc1` [2-(p-hydroxyphenylazo)benzoic acid], the melting point was 206 °C.
Compound `C(#Cc1ccc2ccccc2c1)c1ccccc1` [2-(phenylethynyl)naphthalene] has a melting point of 117 °C.
`CC(=O)c1ccc2ccccc2c1` [2-Acetylnaphthalene] gave a melting point of 55 °C.
Work on `CC(C)(N)CO` [2-Amino-2-methylpropan-1-ol] yielded a melting point of 30 °C.
With `CC(N)(CO)CO` [2-Amino-2-methylpropane-1,3-diol] the melting point was 111 °C.
Compound `N#Cc1c(N)sc2c1CCCC2` [2-Amino-4,5,6,7-tetrahydrobenzo(b)thiophene-3-carbonitrile] has a melting point of 143 °C.
With `CP(=O)(O)CC[C@@H](N)C(=O)O` [2-Amino-4-(Hydroxymethyl-Phosphinyl)Butanoic Acid] the melting point was 230 °C.
`NCCO` [2-Aminoethanol] showed a melting point of 11 °C.
In the case of `CC12CCC(C(C(c3ccccc3)c3ccccc3)C1=O)C2(C)C` (configuration not stated) [2-Bornanone, 3-(diphenylmethyl)-], the melting point is reported as 107 °C.
With `CCCCOCCO` [2-Butoxyethanol] the melting point was -75 °C.
For `Nc1ccc([N+](=O)[O-])cc1Cl` [2-Chloro-4-nitroaniline], the melting point was 108 °C.
In the case of `O=C(O)c1ccccc1Cl` [2-Chlorobenzoic acid], the melting point is reported as 140 °C.
Work on `CCc1ccc2c(c1)C(=O)c1ccccc1C2=O` [2-Ethylanthraquinone] yielded a melting point of 109 °C.
For `CCC1CO1` (configuration not stated) [2-Ethyloxirane], the melting point was -60 °C.
`Nc1ccccc1F` [2-Fluoroaniline] gave a melting point of -34.6 °C.
`O=Cc1ccco1` [2-Furaldehyde] gave a melting point of -36 °C.
`O=C1C=C(O)C(=O)c2ccccc21` [2-Hydroxy-1,4-naphthoquinone] showed a melting point of 192 °C.
With `O=C(O)Cc1ccccc1O` [2-Hydroxyphenylacetic acid] the melting point was 149 °C.
For `CC(C)I` [2-Iodopropane], the melting point was -90 °C.
Work on `COC(C)(C)C` [2-Methoxy-2-methylpropane] yielded a melting point of -109 °C.
`COc1ccc([N+](=O)[O-])cc1N` [2-Methoxy-5-nitroaniline] showed a melting point of 118 °C.
`Cc1cc(O)ccc1O` [2-Methylbenzene-1,4-diol] gave a melting point of 129 °C.
`C=C(C)CC` [2-Methylbut-1-ene] showed a melting point of -137 °C.
Work on `C/C(C)=CCC` [2-Methylpent-2-ene] yielded a melting point of -135 °C.
With `CCCCCCCCCCCCCC(C)C` [2-Methylpentadecane] the melting point was -7 °C.
`Nc1ccccc1[N+](=O)[O-]` [2-Nitroaniline] showed a melting point of 72 °C.
Compound `O=[N+]([O-])c1ccco1` [2-Nitrofuran] has a melting point of 31 °C.
`O=[N+]([O-])c1ccccc1O` [2-Nitrophenol] gave a melting point of 44 °C.
Compound `CC(=O)C(=O)O` [2-Oxopropanoic acid] has a melting point of 12 °C.
In the case of `C1=C(c2ccccc2)Cc2ccccc21` [2-Phenylindene], the melting point is reported as 167 °C.
Work on `O/N=C(/C=C/c1ccccc1)c1ccccc1` [2-Propen-1-one, 1,3-diphenyl-, oxime, (E,Z)-] yielded a melting point of 116 °C.
For `CCCOCCO` [2-Propoxyethanol], the melting point was -75 °C.
For `O=S(=O)([O-])CCN1CC[NH+](CCO)CC1` [2-[4-(2-Hydroxyethyl)piperazin-4-ium-1-yl]ethanesulfonate], the melting point was 236 °C.
Work on `CCCC(C)(COC(N)=O)COC(N)=O` [2-[(Carbamoyloxy)methyl]-2-methylpentyl carbamate] yielded a melting point of 105 °C.
`COc1ccc(/C=C/c2cccc(OC)c2O)cc1OC` [2-[(E)-2-(3,4-Dimethoxyphenyl)vinyl]-6-methoxyphenol] gave a melting point of 165 °C.
With `CC(=O)Nc1ccccc1C(=O)O` [2-acetamidobenzoic acid] the melting point was 186 °C.
`CC(=O)Nc1ccccc1O` [2-acetamidophenol] gave a melting point of 208 °C.
Work on `CC(=O)c1sc(-c2ccccc2)cc1N` [2-acetyl-3-amino-5-phenylthiophene] yielded a melting point of 121 °C.
Compound `CC(=O)c1sccc1N` [2-acetyl-3-aminothiophene] has a melting point of 86 °C.
`CC(=O)c1ccccc1C(=O)O` [2-acetylbenzoic_acid] showed a melting point of 116 °C.
With `CC(=O)c1ccccn1` [2-acetylpyridine] the melting point was 9 °C.
For `CC(C)(N)CO` [2-amino-2-methyl-1-propanol], the melting point was 26 °C.
`Nc1ncc(Br)cc1Br` [2-amino-3,5-dibromopyridine] gave a melting point of 104 °C.
Compound `Nc1c(C(=O)O)cccc1C(F)(F)F` [2-amino-3-(trifluoromethyl)benzoic acid] has a melting point of 155 °C.
`Nc1cc([N+](=O)[O-])ccc1O` [2-amino-4-nitrophenol] [listing 1 of 2 here] gave a melting point of 144 °C.
`Nc1cc([N+](=O)[O-])ccc1O` [2-amino-4-nitrophenol] [listing 2 of 2 here] showed a melting point of 143 °C.
`Cc1cc(Br)cnc1N` [2-amino-5-bromo-3-methylpyridine] showed a melting point of 92 °C.
In the case of `Nc1ncc(Br)cn1` [2-amino-5-bromopyrimidine], the melting point is reported as 233 °C.
In the case of `Nc1nnc(C2CC2)s1` [2-amino-5-cyclopropyl-1,3,4-thiadiazole], the melting point is reported as 214 °C.
`Nc1ccc(I)cn1` [2-amino-5-iodopyridine] gave a melting point of 128 °C.
With `Nc1ccccc1CO` [2-aminobenzyl alcohol] the melting point was 83 °C.
`Oc1ccc(OCc2ccccc2)nc1` [2-benzyloxy-5-hydroxypyridine] showed a melting point of 92 °C.
For `O=C(O)Cc1ccccc1OCc1ccccc1` [2-benzyloxyphenylacetic acid], the melting point was 97 °C.
Work on `OCc1ccccc1-c1ccccc1` [2-biphenylmethanol] yielded a melting point of 49 °C.
In the case of `O=C1c2ccccc2CC1Br` (configuration not stated) [2-bromo-1-indanone], the melting point is reported as 38 °C.
In the case of `CC(C)(F)C(Br)C(=O)O` (configuration not stated) [2-bromo-3-fluoroisovaleric acid], the melting point is reported as 54 °C.
In the case of `Cc1ccc(O)c(Br)c1` [2-bromo-4-methylphenol], the melting point is reported as 16 °C.
In the case of `O=[N+]([O-])c1cc[n+]([O-])c(Br)c1` [2-bromo-4-nitropyridine n-oxide], the melting point is reported as 145 °C.
For `O=C(O)c1cc(Cl)ccc1Br` [2-bromo-5-chlorobenzoic acid], the melting point was 154 °C.
With `Cc1ccc(C)c(Br)c1` [2-bromo-p-xylene] the melting point was 10 °C.
`CC=C(C)Br` [2-bromo-trans-2-butene] showed a melting point of -115 °C.
Compound `COc1ccccc1Br` [2-bromoanisole] has a melting point of 3 °C.
`NC(=O)c1ccccc1Br` [2-bromobenzamide] gave a melting point of 161 °C.
With `OB(O)c1ccccc1Br` [2-bromobenzeneboronic acid] the melting point was 109 °C.
`N#Cc1ccccc1Br` [2-bromobenzonitrile] gave a melting point of 55 °C.
`CCCC(C)Br` (configuration not stated) [2-bromopentane] gave a melting point of -96 °C.
`Oc1ccccc1Br` [2-bromophenol] [listing 1 of 2 here] gave a melting point of 5.6 °C.
`Oc1ccccc1Br` [2-bromophenol] [listing 2 of 2 here] showed a melting point of 5 °C.
Work on `N#CCOc1ccccc1Br` [2-bromophenoxyacetonitrile] yielded a melting point of 49 °C.
Work on `C=C(C)Br` [2-bromopropene] yielded a melting point of -87 °C.
Work on `O=C(O)c1ccc(C(=O)O)c(Br)c1` [2-bromoterephthalic acid] yielded a melting point of 299 °C.
Compound `CCC(C)=O` [2-butanone] has a melting point of -86 °C.
`CC#CC` [2-butyne] showed a melting point of -32 °C.
`O=S(=O)(Nc1ccccc1Cl)c1ccccc1` [2-chloro-1-phenylsulfonamidobenzene] gave a melting point of 125 °C.
`CCc1cccc(CC)c1NC(=O)CCl` [2-chloro-2',6'-diethylacetanilide] gave a melting point of 130 °C.
Work on `CCC(C)(C)Cl` [2-chloro-2-methylbutane] yielded a melting point of -73 °C.
Compound `O=C(CCl)c1ccc(O)c(O)c1` [2-chloro-3',4'-dihydroxyacetophenone] has a melting point of 174 °C.
Compound `COc1ccc(/C=C/C(=O)O)c(Cl)c1OC` [2-chloro-3,4-dimethoxycinnamic acid] has a melting point of 195 °C.
With `N#CCc1cccc(C(F)(F)F)c1Cl` [2-chloro-3-(trifluoromethyl)phenylacetonitrile] the melting point was 58 °C.
With `O=[N+]([O-])c1cc[n+]([O-])c(Cl)c1F` [2-chloro-3-fluoro-4-nitropyridine n-oxide] the melting point was 177 °C.
Compound `O=C(O)c1cccc([N+](=O)[O-])c1Cl` [2-chloro-3-nitrobenzoic acid] has a melting point of 184 °C.
Work on `O=[N+]([O-])c1ccc(-c2ccc([N+](=O)[O-])cc2Cl)cc1` [2-chloro-4,4'-dinitrobiphenyl] yielded a melting point of 145 °C.
`Cc1ccc(B(O)O)c(Cl)c1` [2-chloro-4-methylbenzeneboronic acid] showed a melting point of 200 °C.
With `N#Cc1cc(C(F)(F)F)ccc1Cl` [2-chloro-5-(trifluoromethyl)benzonitrile] the melting point was 39 °C.
For `O=C(O)c1cc(I)ccc1Cl` [2-chloro-5-iodobenzoic acid], the melting point was 159 °C.
`O=Cc1cc([N+](=O)[O-])ccc1Cl` [2-chloro-5-nitrobenzaldehyde] gave a melting point of 71 °C.
`O=C(O)c1cc([N+](=O)[O-])ccc1Cl` [2-chloro-5-nitrobenzoic acid] gave a melting point of 166 °C.
With `Cc1ccc(F)c(C=O)c1Cl` [2-chloro-6-fluoro-3-methylbenzaldehyde] the melting point was 27 °C.
`ON=Cc1c(F)cccc1Cl` [2-chloro-6-fluorobenzaldoxime] showed a melting point of 126 °C.
`Cc1cccc(Cl)c1N` [2-chloro-6-methylaniline] showed a melting point of 2 °C.
In the case of `Nc1c(Cl)cc(C(F)(F)F)cc1[N+](=O)[O-]` [2-chloro-6-nitro-4-(trifluoromethyl)aniline], the melting point is reported as 65 °C.
Compound `O=Cc1ccccc1Cl` [2-chlorobenzaldehyde] has a melting point of 10 °C.
For `N#Cc1ccccc1Cl` [2-chlorobenzonitrile], the melting point was 45 °C.
`Clc1nc2ccccc2s1` [2-chlorobenzothiazole] gave a melting point of 32 °C.
In the case of `Clc1ccccc1C(Cl)(Cl)Cl` [2-chlorobenzotrichloride], the melting point is reported as 30 °C.
`FC(F)(F)c1ccccc1Cl` [2-chlorobenzotrifluoride] gave a melting point of -6 °C.
Work on `Oc1ccc(O)c(Cl)c1` [2-chlorohydroquinone] yielded a melting point of 102 °C.
`O=C(O)C(O)c1ccccc1Cl` (configuration not stated) [2-chloromandelic acid] showed a melting point of 83 °C.
